Source: ChEMBL document CHEMBL5352404, “Synthesis and evaluation of novel furanones as biofilm inhibitors in opportunistic human pathogens” (Eur J Med Chem, 2022)
Calls of active or inactive are those of the source. The rule behind the calls is not given here.

Tests used:
[1] = system: Pseudomonas aeruginosa; assay: Antibacterial activity against Pseudomonas aeruginosa PAR7244 assessed as bacterial growth inhibition at 50 uM incubated for 20 hrs by broth microdilution method; format: functional, organism-based
[2] = system: Stenotrophomonas maltophilia; assay: Antibacterial activity against Stenotrophomonas maltophilia K279a assessed as bacterial growth inhibition at 50 uM incubated for 20 hrs by broth microdilution method; format: functional, organism-based
[3] = system: Stenotrophomonas maltophilia; assay: Inhibition of biofilm formation in Stenotrophomonas maltophilia K279a at 50 uM incubated for 24 hrs by crystal violet staining based analysis; format: functional, organism-based
[4] = system: Pseudomonas aeruginosa; assay: Antibacterial activity against eYFP labeled Pseudomonas aeruginosa PAO1 assessed as inhibition of bacterial growth at 50 uM incubated for 20 hrs by broth microdilution method relative to control; format: functional; design: scale not given: the % may be the effect or the level left
[5] = system: Candida albicans; assay: Antibiofilm activity against Candida albicans M2396 at 50 uM incubated for 24 hrs by confocal laser-scanning microscopy; format: functional, organism-based
[6] = system: Candida albicans; assay: Inhibition of biofilm formation in Candida albicans M2396 at 50 uM incubated for 24 hrs by crystal violet staining based analysis; format: functional, organism-based
[7] = Toxicity in Galleria mellonella larvae assessed as signs of melanization at 100 uM
[8] = system: Escherichia coli; assay: Antibiofilm activity against Escherichia coli ATCC 9637 assessed as reduction in biofilm formation at 50 uM incubated for 24 hrs by crystal violet staining based assay; format: functional, organism-based
[9] = system: Candida albicans; assay: Antibiofilm activity against Candida albicans M2396/Pseudomonas aeruginosa PA01 dual-species at 50 uM incubated for 24 hrs by confocal laser-scanning microscopy; format: functional, organism-based
[10] = system: Pseudomonas aeruginosa; assay: Antibiofilm activity against Pseudomonas aeruginosa PAR7244 assessed as reduction in biofilm formation at 50 uM incubated for 24 hrs by crystal violet staining based analysis; format: functional, organism-based
[11] = system: Candida albicans; assay: Antifungal activity against RFP-expressing Candida albicans M2396 assessed as fungal growth inhibition at 50 uM incubated for 20 hrs by microplate reader analysis; format: functional, organism-based
[12] = system: Pseudomonas aeruginosa; assay: Inhibition of biofilm formation in eYFP labeled Pseudomonas aeruginosa PAO1 at 50 uM incubated for 24 hrs by crystal violet staining based analysis relative to control; format: functional
[13] = system: Candida albicans; assay: Inhibition of biofilm formation in developmental phase of Candida albicans M2396 at 50 uM incubated for 24 hrs by crystal violet staining based analysis; format: functional, organism-based
[14] = Toxicity in Galleria mellonella larvae assessed as reduction in animal survival at 100 uM
[15] = system: HK-2; assay: Cytotoxicity against human HK-2 cells assessed as reduction in cell survival at 50 uM incubated for 24 to 48 hrs by MTT assay; format: toxicity, cell-based; conditions: hk-2, 50 µM, time 24-48 hrs
[16] = system: Staphylococcus aureus; assay: Inhibition of biofilm formation in Staphylococcus aureus Newman ATCC 25904 at 50 uM incubated for 24 hrs by crystal violet staining based assay relative to control; format: functional
[17] = system: Escherichia coli; assay: Antibacterial activity against Escherichia coli ATCC 9637 assessed as bacterial growth inhibition at 50 uM incubated for 20 hrs by broth microdilution method relative to control; format: functional; design: scale not given: the % may be the effect or the level left
[18] = system: Escherichia coli; assay: Antibiofilm activity against Escherichia coli ATCC 9637 assessed as reduction in biofilm formation at 50 uM incubated for 24 hrs by crystal violet staining based assay relative to control; format: functional; design: scale not given: the % may be the effect or the level left
[19] = system: Candida albicans; assay: Inhibition of biofilm formation in developmental phase of Candida albicans M2396 at 50 uM incubated for 24 hrs by crystal violet staining based analysis relative to control; format: functional
[20] = system: Candida albicans; assay: Inhibition of biofilm formation in RFP-expressing Candida albicans M2396 at 50 uM incubated for 24 hrs by crystal violet staining based analysis relative to control; format: functional
[21] = system: Pseudomonas aeruginosa; assay: Antibacterial activity against Pseudomonas aeruginosa PAR7244 infected in Galleria mellonella larvae assessed as increase in survival rate at 50 uM measured every 24 hrs (reference value: 48 %); format: functional
[22] = system: Salmonella typhimurium; assay: Antibacterial activity against Salmonella enterica subsp. enterica serovar Typhimurium assessed as bacterial growth inhibition at 50 uM incubated for 20 hrs by broth microdilution method; format: functional, organism-based
[23] = system: Salmonella typhimurium; assay: Antibiofilm activity against Salmonella enterica subsp. enterica serovar Typhimurium assessed as reduction in biofilm formation at 50 uM incubated for 24 hrs by crystal violet staining based assay relative to control; format: functional; design: scale not given: the % may be the effect or the level left
[24] = system: Pseudomonas aeruginosa; assay: Antibiofilm activity against Pseudomonas aeruginosa PAO1 at 50 uM incubated for 24 hrs by confocal laser-scanning microscopy; format: functional, organism-based
[25] = system: Pseudomonas aeruginosa; assay: Antibiofilm activity against Pseudomonas aeruginosa PAR7244 assessed as reduction in biofilm formation at 50 uM incubated for 24 hrs by crystal violet staining based analysis relative to control; format: functional; design: scale not given: the % may be the effect or the level left

| Compound | Activity [1] | Activity [2] | inhibition [3] | Activity [4] | other results |
| --- | --- | --- | --- | --- | --- |
| O=C1C=CC(=C(c2cccs2)c2cccs2)O1 | inactive | inactive | inactive | <=5% |  |
| O=C1C=C/C(=C(/Br)c2ccccc2)O1 | inactive | inactive | inactive | <=5% |  |
| O=C1C=C/C(=C(/Br)c2cccc([N+](=O)[O-])c2)O1 | inactive | inactive | inactive | <=5% |  |
| O=C1C=C/C(=C/Br)O1 | inactive | inactive | inactive | <=5% | Activity [5]: Active; inhibition [6]: Active; Activity [7]: Non-Toxic; Activity [8]: inactive; Activity [9]: Active; Activity [10]: inactive; Activity [11]: Active; inhibition at 50 µM [12]: 75%; inhibition [13]: inactive; Activity [14]: Non-Toxic; Activity [15]: Toxic |
| COc1ccc(C#CC(C#Cc2ccc(OC)cc2)=C2C=CC(=O)O2)cc1 | inactive | inactive | inactive | <=5% | inhibition at 50 µM [16]: 36%; Activity [17]: 8%; Activity [18]: 31% |
| O=C1C=C/C(=C(/Br)c2ccc(F)cc2)O1 | inactive | inactive | inactive | <=5% |  |
| COc1cccc(C(=C2C=CC(=O)O2)c2cccc(OC)c2)c1 | inactive | inactive | inactive | <=5% | Activity [7]: Non-Toxic; inhibition at 50 µM [16]: 30%; inhibition at 50 µM [19]: 71%; inhibition at 50 µM [12]: 44%; Activity [14]: Non-Toxic; inhibition at 50 µM [20]: 53%; survival at 50 µM [21]: 72%; Activity [15]: Non-Toxic |
| O=C1C=CC(=C(Br)Br)O1 | inactive | inactive | inactive | <=5% | Activity [5]: Active; inhibition [6]: Active; Activity [8]: inactive; Activity [22]: Active; Activity [9]: Active; Activity [23]: 67%; Activity [11]: Active; inhibition [13]: Active |
| O=C1C=C/C(=C(\Cl)I)O1 | inactive | inactive | inactive | <=5% | Activity [5]: Active; Activity [22]: Active; Activity [9]: Active; Activity [23]: 59%; inhibition at 50 µM [19]: 52%; Activity [24]: Active; inhibition at 50 µM [12]: 51%; Activity [17]: 28%; inhibition at 50 µM [20]: 92% |
| O=C1C=C/C(=C(/Br)c2ccc([N+](=O)[O-])cc2)O1 | inactive | inactive | inactive | <=5% |  |
| O=C1C=CC(=C(Cl)Cl)O1 | inactive | inactive | inactive | <=5% | Activity [7]: Non-Toxic; inhibition at 50 µM [12]: 52%; Activity [14]: Non-Toxic; inhibition at 50 µM [20]: 21% |
| O=C1C=C/C(=C(/Br)c2ccc(C(F)(F)F)cc2)O1 | inactive | inactive | inactive | <=5% | inhibition at 50 µM [19]: 85%; inhibition at 50 µM [20]: 75% |
| COc1ccccc1C(=C1C=CC(=O)O1)c1ccccc1OC | inactive | inactive | inactive | <=5% | inhibition at 50 µM [16]: 7%; inhibition at 50 µM [12]: 41% |
| O=C1C=CC(=C(c2ccc(F)cc2)c2ccc(F)cc2)O1 | inactive | inactive | inactive | <=5% |  |
| COc1ccccc1/C(Br)=C1\C=CC(=O)O1 | inactive | inactive | inactive | <=5% |  |
| COc1ccc(/C(Cl)=C2\C=CC(=O)O2)cc1 | inactive | inactive | inactive | <=5% |  |

| Compound | Activity [1] | Activity [2] | inhibition [3] | Activity [4] | other results |
| --- | --- | --- | --- | --- | --- |
| COc1ccc(C(=C2C=C(Br)C(=O)O2)c2ccc(OC)c(Br)c2)cc1Br | inactive | inactive | inactive | <=5% | Activity [18]: 15% |
| O=C1OC(=C(c2ccccc2)c2ccccc2)C=C1Br | inactive | inactive | inactive | <=5% |  |
| O=C1C=CC(=C(c2cccc([N+](=O)[O-])c2)c2cccc([N+](=O)[O-])c2)O1 | inactive | inactive | inactive | <=5% |  |
| COc1ccc(/C(Br)=C2\C=CC(=O)O2)cc1 | inactive | inactive | inactive | <=5% |  |
| O=C1C=CC(=C(c2ccc([N+](=O)[O-])cc2)c2ccc([N+](=O)[O-])cc2)O1 | inactive | inactive | inactive | <=5% |  |
| O=C1C=C/C(=C(/Cl)c2ccccc2)O1 | inactive | inactive | inactive | <=5% |  |
| COc1ccc(C(=C2C=C(Br)C(=O)O2)c2ccc(OC)cc2)cc1 | inactive | inactive | inactive | <=5% |  |
| CC1=CC(=O)OC1=C(Br)Br | inactive | inactive | inactive | 11% | Activity [7]: Non-Toxic; inhibition at 50 µM [12]: 70%; Activity [25]: 44%; Activity [14]: Non-Toxic; inhibition at 50 µM [20]: 38%; Activity [15]: Toxic |
| O=C1OC(=C(c2ccc(C(F)(F)F)cc2)c2ccc(C(F)(F)F)cc2)C=C1Br | inactive | inactive | inactive | <=5% |  |
| O=C1C=CC(=C(c2ccc(O)cc2)c2ccc(O)cc2)O1 | inactive | inactive | inactive | <=5% | inhibition at 50 µM [16]: 52% |
| O=C1C=C(CBr)C(=C(Br)Br)O1 | inactive | inactive | inactive | <=5% | Activity [5]: Active; Activity [7]: Non-Toxic; Activity [22]: Active; inhibition at 50 µM [16]: 71%; Activity [23]: 72%; inhibition at 50 µM [12]: 60%; Activity [14]: Non-Toxic; inhibition at 50 µM [20]: 51%; Activity [15]: Toxic |
| COc1cccc(/C(Br)=C2\C=CC(=O)O2)c1 | inactive | inactive | inactive | <=5% |  |
| O=C1C=CC(=C(c2ccccc2)c2ccccc2)O1 | inactive | inactive | inactive | <=5% |  |
| COc1ccc(C(=C2C=CC(=O)O2)c2ccc(OC)cc2)cc1 | inactive | inactive | inactive | <=5% | inhibition at 50 µM [16]: 44%; inhibition at 50 µM [19]: 75%; inhibition at 50 µM [20]: 61% |
| O=C1C=C(CBr)C(=O)O1 | inactive | inactive | inactive | <=5% |  |
| O=C1C=CC(=C(c2ccc(C(F)(F)F)cc2)c2ccc(C(F)(F)F)cc2)O1 | inactive | inactive | inactive | <=5% |  |
